Data published in PubChem BioAssay (NCI).
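Step 1: Grow cells in 96-well plates. Step 2: Expose to compound for 48 hours at 5 concentrations. Step 3: Interpolate endpoints linearly; if unreached, use highest concentration. At the TGI there is no net growth.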

Key:
Experiment in all cases: NCI tumour cell line growth inhibition, 48 h
NCI-H522 lung = tested on: NCI-H522 lung
U251 CNS = tested on: U251 CNS
PC-3 prostate = tested on: PC-3 prostate
MDA-N = tested on: MDA-N
HCC-2998 colon = tested on: HCC-2998 colon
DMS 273 small cell lung = tested on: DMS 273 small cell lung
HOP-92 NSCLC = tested on: HOP-92 NSCLC
SF-295 CNS = tested on: SF-295 CNS
NCI-H460 lung = tested on: NCI-H460 lung
NCI-H226 lung = tested on: NCI-H226 lung
LOX IMVI melanoma = tested on: LOX IMVI melanoma
HOP-62 NSCLC = tested on: HOP-62 NSCLC
HCT-15 colon = tested on: HCT-15 colon
SF-539 CNS = tested on: SF-539 CNS
MALME-3M melanoma = tested on: MALME-3M melanoma
DMS 114 small cell lung = tested on: DMS 114 small cell lung
IGROV1 ovarian = tested on: IGROV1 ovarian
KM20L2 colon = tested on: KM20L2 colon
BT-549 breast = tested on: BT-549 breast
786-0 renal = tested on: 786-0 renal
MDA-MB-231 breast = tested on: MDA-MB-231 breast
SN12K1 renal = tested on: SN12K1 renal
UO-31 renal = tested on: UO-31 renal
MCF7 breast = tested on: MCF7 breast
K-562 leukemia = tested on: K-562 leukemia
OVCAR-5 ovarian = tested on: OVCAR-5 ovarian
MDA-MB-435 = tested on: MDA-MB-435
DLD-1 colon = tested on: DLD-1 colon
KM12 colon = tested on: KM12 colon
HOP-18 NSCLC = tested on: HOP-18 NSCLC
COLO 205 colon = tested on: COLO 205 colon
SK-OV-3 ovarian = tested on: SK-OV-3 ovarian
OVCAR-4 ovarian = tested on: OVCAR-4 ovarian
RXF 393 renal = tested on: RXF 393 renal
SR leukemia = tested on: SR leukemia
SK-MEL-5 melanoma = tested on: SK-MEL-5 melanoma
T-47D breast = tested on: T-47D breast
M19-MEL melanoma = tested on: M19-MEL melanoma
SNB-19 CNS = tested on: SNB-19 CNS
HL-60(TB) leukemia = tested on: HL-60(TB) leukemia
UACC-62 melanoma = tested on: UACC-62 melanoma
P388/ADR leukemia = tested on: P388/ADR leukemia
SNB-78 CNS = tested on: SNB-78 CNS
DU-145 prostate = tested on: DU-145 prostate
HS 578T breast = tested on: HS 578T breast
P388 leukemia = tested on: P388 leukemia
A498 renal = tested on: A498 renal
HT29 colon = tested on: HT29 colon
SN12C renal = tested on: SN12C renal
RPMI-8226 leukemia = tested on: RPMI-8226 leukemia
SW-620 colon = tested on: SW-620 colon
CAKI-1 renal = tested on: CAKI-1 renal
NCI-H23 lung = tested on: NCI-H23 lung
M14 melanoma = tested on: M14 melanoma
OVCAR-8 ovarian = tested on: OVCAR-8 ovarian
MOLT-4 leukemia = tested on: MOLT-4 leukemia
ACHN renal = tested on: ACHN renal
TK-10 renal = tested on: TK-10 renal
UACC-257 melanoma = tested on: UACC-257 melanoma
SK-MEL-28 melanoma = tested on: SK-MEL-28 melanoma
OVCAR-3 ovarian = tested on: OVCAR-3 ovarian
A549 NSCLC = tested on: A549 NSCLC
SF-268 CNS = tested on: SF-268 CNS
NCI/ADR-RES ovarian = tested on: NCI/ADR-RES ovarian
HCT-116 colon = tested on: HCT-116 colon
SK-MEL-2 melanoma = tested on: SK-MEL-2 melanoma
CCRF-CEM leukemia = tested on: CCRF-CEM leukemia
EKVX NSCLC = tested on: EKVX NSCLC
SNB-75 CNS = tested on: SNB-75 CNS

In the case of `O=NNc1cnccn1`, the TGI (NCI-H522 lung) is reported as > 1250 µM, the TGI (U251 CNS) is reported as > 1250 µM and the TGI (PC-3 prostate) is reported as > 1250 µM. For the same molecule, the TGI (MDA-N) was > 1250 µM, the TGI (HCC-2998 colon) was > 1250 µM and the TGI (DMS 273 small cell lung) was > 1250 µM. For the same molecule, the TGI (HOP-92 NSCLC) was > 1250 µM, the TGI (SF-295 CNS) was > 1250 µM and the TGI (NCI-H460 lung) was > 1250 µM. For the same molecule, the TGI (NCI-H226 lung) was > 1250 µM, the TGI (LOX IMVI melanoma) was > 1250 µM and the TGI (HOP-62 NSCLC) was 265 µM. For the same molecule, the TGI (HCT-15 colon) was > 1250 µM, the TGI (SF-539 CNS) was > 1250 µM and the TGI (MALME-3M melanoma) was > 1250 µM. The TGI (DMS 114 small cell lung) was > 1250 µM, the TGI (IGROV1 ovarian) was > 1250 µM and the TGI (KM20L2 colon) was > 1250 µM. For the same molecule, the TGI (BT-549 breast) was > 1250 µM, the TGI (786-0 renal) was > 1250 µM and the TGI (MDA-MB-231 breast) was > 1250 µM. The TGI (SN12K1 renal) was > 1250 µM, the TGI (UO-31 renal) was > 1250 µM and the TGI (MCF7 breast) was 1240 µM. For the same molecule, the TGI (K-562 leukemia) was > 1250 µM, the TGI (OVCAR-5 ovarian) was > 1250 µM and the TGI (MDA-MB-435) was > 1250 µM. The TGI (DLD-1 colon) was > 1250 µM, the TGI (KM12 colon) was > 1250 µM and the TGI (HOP-18 NSCLC) was > 1250 µM. The TGI (COLO 205 colon) was > 1250 µM, the TGI (SK-OV-3 ovarian) was > 330 µM and the TGI (OVCAR-4 ovarian) was > 1250 µM. For the same molecule, the TGI (RXF 393 renal) was > 1250 µM, the TGI (SR leukemia) was > 1110 µM and the TGI (SK-MEL-5 melanoma) was > 1250 µM. For the same molecule, the TGI (T-47D breast) was > 1250 µM, the TGI (M19-MEL melanoma) was > 1250 µM and the TGI (SNB-19 CNS) was > 1250 µM. For the same molecule, the TGI (HL-60(TB) leukemia) was > 852 µM, the TGI (UACC-62 melanoma) was > 1220 µM and the TGI (P388/ADR leukemia) was > 1250 µM. The TGI (SNB-78 CNS) was > 1250 µM, the TGI (DU-145 prostate) was > 1250 µM and the TGI (HS 578T breast) was > 1250 µM. For the same molecule, the TGI (P388 leukemia) was > 1250 µM, the TGI (A498 renal) was > 1250 µM and the TGI (HT29 colon) was > 1250 µM. For the same molecule, the TGI (SN12C renal) was > 1250 µM, the TGI (RPMI-8226 leukemia) was > 1250 µM and the TGI (SW-620 colon) was > 1250 µM. The TGI (CAKI-1 renal) was > 1250 µM, the TGI (NCI-H23 lung) was > 1250 µM and the TGI (M14 melanoma) was > 1250 µM. The TGI (OVCAR-8 ovarian) was > 1250 µM, the TGI (MOLT-4 leukemia) was 876 µM and the TGI (ACHN renal) was > 1250 µM. For the same molecule, the TGI (TK-10 renal) was > 1250 µM, the TGI (UACC-257 melanoma) was > 1250 µM and the TGI (SK-MEL-28 melanoma) was > 1250 µM. For the same molecule, the TGI (OVCAR-3 ovarian) was > 1250 µM, the TGI (A549 NSCLC) was > 1250 µM and the TGI (SF-268 CNS) was > 1250 µM. The TGI (NCI/ADR-RES ovarian) was > 1250 µM, the TGI (HCT-116 colon) was > 1250 µM and the TGI (SK-MEL-2 melanoma) was > 1250 µM. For the same molecule, the TGI (CCRF-CEM leukemia) was > 1250 µM, the TGI (EKVX NSCLC) was > 1250 µM and the TGI (SNB-75 CNS) was > 1250 µM.
